Drawing on ChEMBL document CHEMBL1138148, “Conformational constraint in oxazolidinone antibacterials. Part 2: Synthesis and structure-activity studies of oxa-, aza-, and thiabicyclo[3.1.0]hexylphenyl oxazolidinones” (2006), this text covers MIC and ED50 for 14 compounds.

Values after ≈ are worked out from the molar mass of the structure shown.

Format in all cases: functional
One assay has as its system Haemophilus influenzae. Description: Antibacterial activity against Haemophilus influenzae HI3542. Conditions: HI-3542.
Assay [1] relates to Staphylococcus aureus. Description: In vivo efficacy in mouse infected with Staphylococcus aureus UC 9213 administered po. Conditions: UC 9213, po.
Another assay relates to Enterococcus faecalis. The experiment in a line: Antibacterial activity against Enterococcus faecalis MGH-2 EF1-1.
In the next assay the test system is Moraxella catarrhalis. Description: Antibacterial activity against Moraxella catarrhalis BC-3531.
The next assay concerns Streptococcus pneumoniae. Description: Antibacterial activity against Streptococcus pneumoniae SVI SP-3.
The test system of assay [2] is Staphylococcus aureus. The experiment in a line: Antibacterial activity against Staphylococcus aureus UC-76 SA-1.

Turning to `CC(=O)NC[C@H]1CN(c2cc(F)c([C@H]3[C@@H]4CS(=O)(=O)C[C@@H]43)c(F)c2)C(=O)O1`, the MIC in the assay with Haemophilus influenzae came to 8 µg/mL (≈ 20 µM); against Enterococcus faecalis, 2 µg/mL (≈ 4.99 µM); in the assay with Moraxella catarrhalis it was 4 µg/mL (≈ 9.99 µM); against Streptococcus pneumoniae, 1 µg/mL (≈ 2.5 µM); against Staphylococcus aureus [2], 2 µg/mL (≈ 4.99 µM). Besides, it took a dose of 3.1 mg/kg to reach the 50% effect level in the assay with Staphylococcus aureus [1] (ED50).
Regarding `CC(=O)NC[C@H]1CN(c2ccc([C@H]3[C@@H]4CN(C(N)=O)C[C@@H]43)c(F)c2)C(=O)O1`, the MIC against Haemophilus influenzae is 8 µg/mL (≈ 21.3 µM); against Enterococcus faecalis it was 2 µg/mL (≈ 5.31 µM); against Moraxella catarrhalis it was 8 µg/mL (≈ 21.3 µM); in the assay with Streptococcus pneumoniae it was 2 µg/mL (≈ 5.31 µM); in the assay with Staphylococcus aureus [2], 2 µg/mL (≈ 5.31 µM). Moreover, the 50% effect level with Staphylococcus aureus [1] (ED50) was put at a dose of 15.3 mg/kg.
In the case of `CC(F)(F)C(=O)NC[C@H]1CN(c2ccc([C@H]3[C@@H]4CS(=O)(=O)C[C@@H]43)c(F)c2)C(=O)O1`, the MIC stood at 16 µg/mL (≈ 37 µM) against Haemophilus influenzae; 8 µg/mL (≈ 18.5 µM) against Enterococcus faecalis; 8 µg/mL (≈ 18.5 µM) in the assay on Moraxella catarrhalis; 2 µg/mL (≈ 4.63 µM) in the assay with Streptococcus pneumoniae; 8 µg/mL (≈ 18.5 µM) with Staphylococcus aureus [2].
In the case of `CC(=O)NC[C@H]1CN(c2ccc([C@H]3[C@@H]4CN(C(=O)CO)C[C@@H]43)cc2)C(=O)O1`, the MIC worked out at 8 µg/mL (≈ 21.4 µM) against Haemophilus influenzae; 4 µg/mL (≈ 10.7 µM) with Enterococcus faecalis; 4 µg/mL (≈ 10.7 µM) in the assay on Moraxella catarrhalis; 4 µg/mL (≈ 10.7 µM) against Streptococcus pneumoniae; 4 µg/mL (≈ 10.7 µM) in the assay on Staphylococcus aureus [2].
With `CC(=O)NC[C@H]1CN(c2ccc([C@H]3[C@@H]4CS(=O)(=O)C[C@@H]43)c(F)c2)C(=O)O1`, the MIC against Haemophilus influenzae turned out to be 8 µg/mL (≈ 20.9 µM); against Enterococcus faecalis it was 4 µg/mL (≈ 10.5 µM); with Moraxella catarrhalis, 8 µg/mL (≈ 20.9 µM); with Streptococcus pneumoniae, 2 µg/mL (≈ 5.23 µM); against Staphylococcus aureus [2], 4 µg/mL (≈ 10.5 µM). This compound gave a median effective dose (ED50) in the assay with Staphylococcus aureus [1] of 4.2 mg/kg.
Turning to `O=C(CO)NC[C@H]1CN(c2ccc([C@H]3[C@@H]4CS(=O)(=O)C[C@@H]43)c(F)c2)C(=O)O1`, the MIC in the assay with Haemophilus influenzae amounted to 8 µg/mL (≈ 20.1 µM); against Enterococcus faecalis it was 8 µg/mL (≈ 20.1 µM); against Moraxella catarrhalis it was 8 µg/mL (≈ 20.1 µM); against Streptococcus pneumoniae, 4 µg/mL (≈ 10 µM); in the assay on Staphylococcus aureus [2] it was 8 µg/mL (≈ 20.1 µM).
In the case of `CCC(=O)NC[C@H]1CN(c2ccc([C@H]3[C@@H]4CS(=O)(=O)C[C@@H]43)c(F)c2)C(=O)O1`, the MIC amounted to 8 µg/mL (≈ 20.2 µM) against Haemophilus influenzae; 2 µg/mL (≈ 5.04 µM) against Enterococcus faecalis; 8 µg/mL (≈ 20.2 µM) against Moraxella catarrhalis; 1 µg/mL (≈ 2.52 µM) against Streptococcus pneumoniae; 4 µg/mL (≈ 10.1 µM) against Staphylococcus aureus [2].
`CC(=O)NC[C@H]1CN(c2cc(F)c([C@H]3[C@@H]4CN(C(=O)CO)C[C@@H]43)c(F)c2)C(=O)O1`: the MIC with Haemophilus influenzae was determined as 16 µg/mL (≈ 39.1 µM); against Enterococcus faecalis, 4 µg/mL (≈ 9.77 µM); in the assay with Moraxella catarrhalis, 8 µg/mL (≈ 19.5 µM); in the assay on Streptococcus pneumoniae it was 2 µg/mL (≈ 4.89 µM); with Staphylococcus aureus [2] it was 4 µg/mL (≈ 9.77 µM).
Turning to `CC(=O)NC[C@H]1CN(c2ccc([C@H]3[C@@H]4CS(=O)(=O)C[C@@H]43)cc2)C(=O)O1`, the MIC in the assay on Haemophilus influenzae was 16 µg/mL (≈ 43.9 µM); with Enterococcus faecalis, 8 µg/mL (≈ 22 µM); against Moraxella catarrhalis, 8 µg/mL (≈ 22 µM); in the assay on Streptococcus pneumoniae, 4 µg/mL (≈ 11 µM); in the assay on Staphylococcus aureus [2], 4 µg/mL (≈ 11 µM). In the assay with Staphylococcus aureus [1], this compound gave an ED50 of 7.2 mg/kg.
Regarding `CC(=O)NC[C@H]1CN(c2ccc([C@H]3[C@@H]4COC[C@@H]43)cc2)C(=O)O1`, the MIC in the assay on Haemophilus influenzae amounted to 32 µg/mL (≈ 101 µM); against Enterococcus faecalis, 16 µg/mL (≈ 50.6 µM); in the assay with Moraxella catarrhalis it was 8 µg/mL (≈ 25.3 µM); against Streptococcus pneumoniae, 8 µg/mL (≈ 25.3 µM); with Staphylococcus aureus [2], 8 µg/mL (≈ 25.3 µM).
Regarding `N#CCC(=O)NC[C@H]1CN(c2ccc([C@H]3[C@@H]4CS(=O)(=O)C[C@@H]43)c(F)c2)C(=O)O1`, the MIC against Haemophilus influenzae was 8 µg/mL (≈ 19.6 µM); against Enterococcus faecalis it was 8 µg/mL (≈ 19.6 µM); in the assay on Moraxella catarrhalis it was 8 µg/mL (≈ 19.6 µM); against Streptococcus pneumoniae it was 4 µg/mL (≈ 9.82 µM); against Staphylococcus aureus [2], 8 µg/mL (≈ 19.6 µM).
Consider `CC(=O)NC[C@H]1CN(c2cc(F)c([C@H]3[C@@H]4COC[C@@H]43)c(F)c2)C(=O)O1`, for which the MIC came to 32 µg/mL (≈ 90.8 µM) in the assay with Haemophilus influenzae; 8 µg/mL (≈ 22.7 µM) in the assay on Enterococcus faecalis; 8 µg/mL (≈ 22.7 µM) in the assay on Moraxella catarrhalis; 4 µg/mL (≈ 11.4 µM) in the assay with Streptococcus pneumoniae; 8 µg/mL (≈ 22.7 µM) against Staphylococcus aureus [2].
On to `CC(=O)NC[C@H]1CN(c2ccc([C@H]3[C@@H]4CN(C(=O)CO)C[C@@H]43)c(F)c2)C(=O)O1`, for which the MIC in the assay on Haemophilus influenzae was 4 µg/mL (≈ 10.2 µM); with Enterococcus faecalis, 2 µg/mL (≈ 5.11 µM); in the assay with Moraxella catarrhalis, 8 µg/mL (≈ 20.4 µM); against Streptococcus pneumoniae, 2 µg/mL (≈ 5.11 µM); against Staphylococcus aureus [2], 2 µg/mL (≈ 5.11 µM). In addition, the ED50 in the assay with Staphylococcus aureus [1] was 2.2 mg/kg.
With `CC(=O)NC[C@H]1CN(c2ccc([C@H]3[C@@H]4COC[C@@H]43)c(F)c2)C(=O)O1`, the MIC in the assay with Haemophilus influenzae came to 8 µg/mL (≈ 23.9 µM); with Enterococcus faecalis it was 4 µg/mL (≈ 12 µM); with Moraxella catarrhalis it was 4 µg/mL (≈ 12 µM); in the assay with Streptococcus pneumoniae it was 2 µg/mL (≈ 5.98 µM); against Staphylococcus aureus [2], 4 µg/mL (≈ 12 µM).

Usually ED50 stands for the midpoint of the dose-response relation. Lower therefore signals an effect at a small dose.
